For 73 compounds, EC50, IC50 and outcome results are on record in PubChem BioAssay AID179 (DTP/NCI, 2004).

Where “and” joins values, the source holds several entries; their conditions need not be identical. Equal entries are not always repeated. Calls of active or inactive are those of the source.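 Rule for the calls: active = compounds giving half or more protection of infected cells from virus-caused growth loss, again on retest; inactive = the rest.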

For this assay, the system named is CEM cells HIV-1 protection, formazan growth assay. The assay can be described thus: NCI AIDS Antiviral Assay. The conditions noted are these: for IC50: measured here: growth of uninfected CEM cells. The method, boiled down:
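Protection of CEM cells against HIV-1 was scored from cell growth (soluble formazan) across five concentrations, with parallel uninfected cells. Lack of protection may reflect toxicity.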

On to `CC(=O)COP(=O)(OCC(C)=O)OCC1OC(n2cc(C)c(=O)[nH]c2=O)CC1N=[N+]=[N-]` (centres undefined), for which the EC50 (in general, the concentration that produces a half-maximal response) is 0.000631 µM and the IC50 (usually the concentration at which inhibition is half-maximal) was found to be 2 µM. `CCCC(O)CNCc1ccc(N(C)C)cc1` (centres undefined): the outcome was inactive. `O=C1NC(=O)c2c1c1cnn(-c3ccccc3)c1n1cccc21`: the EC50 is greater than 74.1 µM and the IC50 is greater than 74.1 µM. As for `COCC(=O)C1CC[C@@H]2[C@H](CC[C@]3(C)[C@@H](OC(C)=O)CC[C@@H]23)[C@H]1C(=O)OC` (some centres undefined), the EC50 is greater than 50.1 µM and the IC50 is greater than 50.1 µM. Turning to `O=C(O)c1cc2c(cn1)[nH]c1ccccc12`, the result was inactive. On to `CCC(C#N)N(Cc1cccc(CN(C(C)=O)C(C#N)CC)c1)C(C)=O` (centres undefined), for which the EC50 was greater than 200 µM and the IC50 is 191 µM. On to `O=C1C=C(c2ccccc2)C2(c3ccccc3)C1C1C(c3ccccc3)=C(c3ccccc3)C2C12SCCS2` (centres undefined), for which the EC50 is greater than 200 µM and the IC50 was found to be 3.39 µM. As for `CSC[C@H](NC(=O)COc1cccc2cnccc12)C(=O)NC(Cc1ccccc1)C(O)C(=O)N1CSC[C@H]1C(=O)NC(C)(C)C` (some centres undefined), the EC50 was 0.0513 µM and the IC50 was 10 µM. For `N#Cc1c(-c2ccco2)c2c(n(C3OC(CO)C(O)C(O)C3O)c1=S)CCCC2` (centres undefined) the same measures were greater than 200 µM and 110 µM. For the compound `CCC[CH2][Sn]1([CH2]CCC)[O]C(=O)C2C(C=C(C)C)C=C(C)C(C)C2C(=O)[O]1` (centres undefined), the EC50 is greater than 2 µM and the half-maximal inhibitory concentration (IC50) was found to be 0.0871 µM. As to `O=C1COc2cc3c(cc2N1)SCC(=O)N3`, the EC50 is greater than 42.7 µM and the IC50 was greater than 42.7 µM. Turning to `CN(C)c1nc(N(C)C)nc(N(C)C23CC4CC(CC(C4)C2)C3)n1`, the EC50 was greater than 200 µM and the IC50 was determined as 64.6 µM. `O=C(Nc1ccccc1F)c1c(O)nc2sccn2c1=O`: the EC50 is greater than 200 µM and the IC50 was determined as 51.3 µM. For `CCOC(=O)Nc1n[nH]nc1Cl` the same measures were greater than 200 µM and greater than 200 µM. In the case of `CCCCCCN(CCCCCC)C(=O)C1=C(C)NC(C)=C(C(=O)N(CCCCCC)CCCCCC)C1`, the EC50 is greater than 200 µM and the IC50 turned out to be 95.5 µM. As for `CN(C)CC1CN=C(NC(=O)Nc2ccccc2)O1` (centres undefined), the EC50 is greater than 200 µM and the IC50 is greater than 200 µM. For the compound `Oc1ccc2ccccc2c1Br`, the EC50 was greater than 200 µM and the IC50 worked out at 162 µM. As for `CC(C)(C)OC(=O)Cc1ccc2c(ccn2Cc2ccccc2)c1`, the result was inactive. For the compound `C[PH+](C)CC[PH+](C)C.[C-]#[O+].[C-]#[O+].[C-]#[O+].[Fe]`, the EC50 is greater than 200 µM and the IC50 is greater than 200 µM. Consider `COc1ccc2c3c1C(=O)CCCC3CO2` (centres undefined), for which the outcome was inactive. Turning to `CCOC(=O)C(NC(=O)c1ccccc1)(Nc1ccc(S(=O)(=O)Nc2ncccn2)cc1)C(F)(F)F` (centres undefined), the EC50 is greater than 200 µM and the IC50 was greater than 200 µM. Take `CCc1c(Cc2cc(C)cc(C)c2)n(COCCO[Si](C)(C)C(C)(C)C)c(=O)[nH]c1=O`: the EC50 was 0.646 µM and the IC50 came to 11.5 µM. With `CC1(C)CCCCCC(C)(CCCCCCCCCCCO)C1=O` (centres undefined), the EC50 was greater than 200 µM and the IC50 turned out to be 30.2 µM. The like results for `CC(NCc1c(O)ccc2c(-c3ccccc3)cc(=O)oc12)C(=O)O` (centres undefined) were, in that order, greater than 200 µM and greater than 200 µM. The like results for `CCOC(=O)CCc1cn2cc(Br)nc(OC)c2n1` were, in that order, greater than 200 µM and 25.1 µM. `O=c1c2[nH]c3cccc(Cl)c3c2cnn1-c1ccc(F)cc1`: the EC50 is greater than 6.03 µM and the IC50 was greater than 6.03 µM. For `CCCCCCCCCCCCCCCCOC[C@H](COC(c1ccccc1)(c1ccccc1)c1ccccc1)O[P+](=S)OC` (some centres undefined), the EC50 was greater than 100 µM and the IC50 came to 57.5 µM. `COC(=O)Nc1nc2ccc(C(=O)c3ccc[nH]3)cc2[nH]1`: the EC50 is greater than 200 µM; the IC50 was 0.977 µM and 1.66 µM. For the compound `Cc1nsnc1CCO`, the EC50 is greater than 1740 µM and the IC50 was greater than 1740 µM. Take `CN(C)CCN(C)CCN(C)C.Cc1ccc(S(=O)(=O)[O-])cc1.Cc1ccc(S(=O)(=O)[O-])cc1.[Pd+2]`: the EC50 is greater than 200 µM and the half-inhibitory concentration (IC50) was 10.7 µM. The like results for `CCOC(=O)[C@@H]1ON2O[C@@H](OC3CCCCC3c3ccccc3)C[C@H]3OC(=O)[C@@H]1C32` (some centres undefined) were, in that order, greater than 200 µM and greater than 200 µM. As for `Cc1ccccc1NC(=O)C(=O)C1CN(c2ccccc2)N=C1N` (centres undefined), the EC50 is greater than 209 µM and the 50% inhibitory concentration (IC50) is greater than 209 µM. On to `CC(=O)c1ccc([Se][Se]c2ccc(C(C)=O)cc2)cc1`, for which the EC50 was greater than 18.2 µM and the IC50 was found to be 3.72 µM. For `N#CC(=C1CCN(Cc2ccccc2)CC1)c1ccccc1` the same measures were greater than 200 µM and 81.3 µM. For `COc1ccc(/C=N/N=C(\[O-])c2ccncc2)cc1F.COc1ccc(/C=N\N=C(/[O-])c2ccncc2)cc1F.[Cu+2]` the same measures were greater than 100 µM and 18.6 µM. As for `CC(=O)N/N=C(/C)c1cccs1`, the EC50 was greater than 200 µM and the IC50 was greater than 200 µM.

`Cc1ccc(NC(=O)CC(=O)n2nc(-c3ccccc3)c(N=Nc3ccccc3Cl)c2-c2ccccc2)cc1`: the EC50 was greater than 9.77 µM and the half-inhibitory concentration (IC50) is greater than 9.77 µM. Turning to `Cc1cc2c(cc1CO)N1Cc3cc(C)c(CO)cc3N(C2)C1`, the outcome was inactive.

On to `CCN(C(=N)C#N)c1ccccc1`, for which the EC50 was greater than 513 µM and the IC50 was found to be 302 µM. Regarding `COC1/C=C/OC2(C)Oc3c(C)c(O)c4c(O)c(c(/C=N\N(C)C56CC7CC(CC(C7)C5)C6)c(O)c4c3C2=O)NC(=O)C(C)=C/C=C/C(C)C(O)C(C)C(O)C(C)C(OC(C)=O)C1C` (centres undefined), the EC50 is greater than 200 µM and the IC50 is 7.41 µM. On to `COC(CN(C(=O)c1ccccc1)C1CCC2(SCCS2)c2[nH]c3ccccc3c21)OC` (centres undefined), for which the EC50 is greater than 200 µM and the concentration for half-maximal inhibition (IC50) amounted to 14.5 µM.

In the case of `CC(C)(C)[Si](C)(C)OCC1OC(n2ccc(=O)[nH]c2=O)C(O[Si](C)(C)C(C)(C)C)[C@@]12O[C@H]2C(N)=O` (some centres undefined), the EC50 is greater than 200 µM and the IC50 turned out to be 7.76 µM. As to `Cc1cc2ncn(C3CCCCO3)c2cc1C` (centres undefined), the EC50 is greater than 200 µM and the IC50 was greater than 200 µM. Take `CCC1C2C=CC(CC2)N1S(=O)(=O)c1ccc(C)cc1` (centres undefined): the EC50 is greater than 64.6 µM and the IC50 was 36.3 µM. The like results for `Nc1ccc2[nH]c(C(=O)N3CC(CCl)c4c3cc(N)c3ccccc43)cc2c1` (centres undefined) were, in that order, greater than 0.2 µM and 0.00417 µM. The like results for `Fc1ccc(NC(=S)N/N=C\c2c(Cl)cccc2Cl)cc1` were, in that order, greater than 275 µM and greater than 275 µM.

Take `[N-]=[N+]=CC(=O)OC1Cc2ccccc2C1`: the EC50 was 182 µM and the IC50 was greater than 200 µM. For the compound `Cc1[nH]c(=S)c(C#N)c(C)c1C`, the EC50 is greater than 100 µM and the IC50 is greater than 100 µM. With `O=c1oc2ccccc2c(O)c1C(c1ccc2c(c1)Cc1ccccc1-2)c1c(O)c2ccccc2oc1=O`, the EC50 was greater than 200 µM and the IC50 was 46.8 µM. For `CC[CH2][Sn]([CH2]CC)([O]C(=O)Cc1ccc(F)cc1)[O][Sn]([CH2]CC)([CH2]CC)[O]C(=O)Cc1ccc(F)cc1` the same measures were greater than 5.13 µM and 3.24 µM. The like results for `COc1cc(N=O)c(N=O)cc1[N+](=O)[O-]` were, in that order, greater than 170 µM and 15.1 µM.

Turning to `COc1ccc2c(c1)CCC1C[C@@H]3C[C@]21C=CC3=O` (some centres undefined), the EC50 is greater than 182 µM; the IC50 is 49 µM and > 28.2 µM. As to `CC(C)c1ccc(/C=C2\CSCC3=C2NC(=S)NC3c2ccc(C(C)C)cc2)cc1` (centres undefined), the EC50 is greater than 200 µM and the IC50 was determined as 42.7 µM. In the case of `CCC1C(=O)OCc2ccccc21` (centres undefined), the EC50 was greater than 200 µM and the IC50 was greater than 200 µM. Take `CCC1(CC)CC(=NNS(=O)(=O)c2ccc(C)cc2)C1`: the outcome was inactive. In the case of `CCC(=C(C#N)C#N)c1cc(OC)c(OC)c(OC)c1`, the EC50 is greater than 26.3 µM and the IC50 is greater than 26.3 µM. Regarding `C=C(C)CN(CC(=C)C)C(=N)OCC1CCCO1` (centres undefined), the EC50 was greater than 200 µM and the IC50 was greater than 200 µM. Regarding `Nc1ccc(/C=C2\C=Cc3ccccc32)cc1`, the EC50 is greater than 200 µM and the IC50 was found to be 28.2 µM. With `CC(=O)NCCSSSCCNC(C)=O`, the EC50 was greater than 200 µM and the half-inhibitory concentration (IC50) was determined as 0.891 µM. For `COc1cc2oc(=O)cc(C)c2cc1O` the same measures were greater than 871 µM and 138 µM.

Turning to `O=C(O)CN1C(=O)c2cccc3cccc(c23)C1=O`, the EC50 is greater than 200 µM and the IC50 was greater than 200 µM. For the compound `N#C/C(=C\c1ccccc1[N+](=O)[O-])C(=O)O`, the EC50 is greater than 603 µM and the IC50 came out at 363 µM. In the case of `CC(=O)OCCCCn1cnc2c(Cl)nc(Nc3ccccc3)nc21`, the EC50 is greater than 200 µM and the IC50 is greater than 200 µM. As to `CC1(C)C(=C(C#N)C#N)C(C)(C)C1=C(C#N)C#N`, the EC50 is greater than 100 µM and the IC50 is greater than 100 µM. Turning to `O=C(OCCN=C1c2ccccc2CCc2ccccc21)c1ccccc1`, the EC50 is greater than 200 µM and the IC50 was greater than 200 µM. Take `COC(=O)c1ccc(/C=C2\Oc3ccccc3C2=O)cc1`: the EC50 is greater than 200 µM and the IC50 was greater than 200 µM. Regarding `Nc1ccc2oc3cccc(N)c3c(=O)c2c1`, the EC50 was greater than 22.9 µM and the 50% inhibitory concentration (IC50) was greater than 22.9 µM. For the compound `C/C(C(=O)O)=C(\C)c1ccccc1`, the EC50 is greater than 200 µM and the IC50 is greater than 200 µM.

As for `CC1C(NNc2ccccc2)Oc2cc3c(cc2C1c1ccccc1O)OCO3` (centres undefined), the outcome was inactive. Consider `O=C(CCN1CCCCC1)c1cc2cc([N+](=O)[O-])ccc2oc1=O`, for which the EC50 was greater than 219 µM and the IC50 is 112 µM.

As to `COC1(C)OC23C(=O)N(C)C(=O)N(C)C2(O1)N(C(C)=O)C(=O)N3C` (centres undefined), the EC50 is greater than 200 µM and the IC50 is greater than 200 µM.

As to `CS(C)=O`, the EC50 was greater than 200 µM and the IC50 is greater than 200 µM. As to `CC(=O)C1=CSC2[C@H](NC(=O)Cc3ccccc3)C(=O)N2C1C(=O)OC(c1ccccc1)c1ccccc1` (some centres undefined), the EC50 is greater than 25.7 µM and the IC50 was 15.8 µM.
